Patent EP0029617A1, “Use of tertiary heterocyclic amines as synergists in pesticides; derivatives of cycloamines” (priority 1979, dated 1981)
Read-outs that look alike come from different tables or passages of the source.

Legend:
Drosophila melanogaster = experiment: whole plant or invertebrate; assay type: in vivo
Source text: Die insektiziden Wirkungen von tertiären heterocyclischen Aminen und die synergistischen Eigenschaften mit dem Phosphorsäureester Dimethoat und dem Carbamat Dimetilan, getestet an Drosophila melanogaster.
Die Versuche wurden in Petrischalen von 10 cm Durchmesser ausgeführt. Es wurden zunächst die gerade noch wirksamen Konzentrationen von Dimethoat und Dimetilan bestimmt. Für Dimethoat wurde 0,005 % und für Dimetilan 0,0001 % als günstige Versuchskonzentration ermittelt. Die Aminkomponente wurde mit 1 ml 0,05%iger Lösung + 1 ml Aceton auf insektizide Wirkung getestet. Zur Bestimmung des Synergismus wurde 1 ml 0,05%ige Aminlösung + 1 ml 0,005.%ige Dimethoatlösung, bzw. + 1 ml 0,0001%ige Dimetilanlösung pro Petrischale eingesetzt. Alle Verdünnungen wurden mit Aceton als Lösungsmittel hergestellt.
In den Petrischalen wurden die Lösungen am Boden gut verteilt und 30 min lang antrocknen lassen. In jede Petrischale wurden 20 mit Kohlendioxid betäubte Drosophila eingezählt. Alle 5 min, insgesamt 12 mal, wurde die Anzahl der toten Drosophila ausgezählt und notiert. Die Zahlen wurden aufsummiert und im Verhältnis zur möglichen Zahl an toten Drosophila in % angegeben, wobei der Tot aller Drosophila innerhalb der ersten 5 min 100 % Wirkung entspricht. Jeder Versuch wurde mit 3 Wiederholungen durchgeführt. In Tabelle 1 sind die Mittelwerte der Ergebnisse zusammengestellt.
Zur Ermittlung des synergistischen Faktors wurden die Einzelwerte pro Zeiteinheit durch die für Dimethoat, bzw. Dimetilan für die jeweilige Zeiteinheit gefundenen Werte dividiert. Die Werte für jede Zeiteinheit wurden summiert und durch die Anzahl der Zeiteinheiten dividiert. Die Versuche wurden bei sonst stets gleichbleibenden Bedingungen bei Temperaturen von 20 - 22°C ausgeführt. Die Kontrollversuche zeigten bei Versuchsabschluß stets 0 % Mortalität. Hat die Substanz selbst eine insektizide Wirkung, so wurden die Wirkungsfaktoren für Dimethoat und Dimetilan nach Abzug des Substanzwertes berechnet und in der Tabelle aufgeführt.
Im Beispiel 1 war das Verhältnis von Insektizid und erfindungsgemäßem Amin 1 : 10 in den Gemischen mit Dimethoat. In der Tabelle 2 sind Verhältnisse von 1 : 1, 1 : 2 und 1 : 0,2 bei Versuchen mit Dimethoat aufgeführt, dabei wurde das Dimethoat immer in einer Konzentation von 0,005 % eingesetzt. Die Tabelle zeigt, daß auch bei diesen Verhältnissen noch eine gute synergistische Wirkung vorhanden ist, und es keineswegs einer großen überdosierung des Amins bedarf.

[1] = test system: Kornkäfer (sitophilus granarius L); experiment: whole plant or invertebrate; assay type: in vivo; conditions: for mortality at 1000 µg/mL: read-out: Wirksamkeit in % Substanz allein; for % Wirkung Substanz +Ripcord / % Wirkung Substanz +Talcord: 180 min
Procedure, shortened: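 Acetone solutions (2 ml) were dried as films in 15 cm Petri dishes and 25 grain weevils added per dish, with a filter inserted after 1 h. Dead beetles were counted at 3 h at 19–21 °C, and % mortality and the synergistic factor were derived.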

[2] = 1 ml 0,05%ige amine solution + 1 ml 0,0001%ige Dimetilan solution
[3] = 1 ml 0,05%ige amine solution + 1 ml 0,005 %ige Dimethoat solution (Dimethoat : amine 1 : 10)
[4] = 1 ml 0,05%ige amine solution + 1 ml Aceton per dish, 20 flies, dead counted every 5 min, 12 times, mean values
[5] = amine 0,05 % + Dimethoat 0,005 %, calculated after subtracting the amine's own effect
[6] = amine 1 mg/ml + Ripcord 0,01 mg/ml
[7] = amine 1 mg/ml + Talcord 0,01 mg/ml
[8] = amine 1 mg/ml in Aceton mixed 1 : 1 with Aceton, 2 ml per dish, 25 weevils, dead counted after 3 h
[9] = amine 1 mg/ml mixed 1 : 1 with Ripcord 0,01 mg/ml, 3 h
[10] = amine 1 mg/ml mixed 1 : 1 with Talcord 0,01 mg/ml, 3 h
[11] = Drosophila melanogaster, amine 0,005 %, read-out: Sub-stanz allein
[12] = amine 0,005 % + Dimethoat 0,005 %, Dimethoat : Amin 1 : 1
[13] = amine 0,005 %, Dimethoat : Amin 1 : 1
[14] = Sitophilus granarius, amine 1 mg/ml in Aceton mixed 1 : 1 with Aceton, 2 ml per dish, 25 weevils, dead counted after 3 h
[15] = amine 0,05 % + Dimetilan 0,0001 %, calculated after subtracting the amine's own effect
[16] = Drosophila melanogaster, 1 ml 0,05%ige amine solution + 1 ml Aceton per dish, 20 flies, dead counted every 5 min, 12 times, mean values, read-out: Wirksamkeit in % Substanz allein
[17] = drosophila melanogaster, in vivo
[18] = sitophilus granarius, in vivo, 3 h
[19] = Drosophila melanogaster, amine 0,05 %, read-out: Sub-stanz allein
[20] = amine 0,05 % + Dimethoat 0,005 %, Dimethoat : Amin 1 : 10
[21] = amine 0,05 %, Dimethoat : Amin 1 : 10
[22] = Pyrethroid : Amin 1 : 5, amine 0,05 mg/ml
[23] = Pyrethroid : Amin 1 : 10, amine 0,1 mg/ml

Structure (SMILES) | Wirksamkeit in % Substanz +Dimeti-lan (Drosophila melanogaster; [2]) | Wirksamkeit in % Substanz +Dimethoat (Drosophila melanogaster; [3]) | Faktor der Wirkungssteigerung bei Dime-methoat (Drosophila melanogaster; [5]) | Synergistischer Faktor bei Ripcord [1, 6] | Synergistischer Faktor bei Talcord [1, 7] | Wirksamkeit in % Substanz +Ripcord [1, 9] | Wirksamkeit in % Substanz +Talcord [1, 10] | mortality at 1000 µg/mL [1, 14] [%] | mortality at 0.05 % (Drosophila melanogaster; [16]) [%] | also measured
CCOC(=O)CC(C(=O)OCC)N1CCCCC1 (stereo not drawn) [N-Piperidino-bernstein-säure-di-ethylester] | 2,3% | 38,8% | 4,51 | 3,08 | 2,47 | 97,2% | 24,0% | – | – | Wirksamkeit in % Substanz allein (Drosophila melanogaster; [4]): 0%; Wirksamkeit in % Substanz allein [1, 8]: 0%
CC(C)=CCCC(C)CCN1CCCCC1 (stereo not drawn) [N-Citronellyl-piperidin] | – | – | – | 2,46 | 5,53 | 78,8% | 54,8% | 1.2 | – | mortality at 0.001 % (Drosophila melanogaster; Drosophila melanogaster, amine 0,001 %, read-out: Sub-stanz allein): 0%; mortality at 0.005 % (Drosophila melanogaster; [11]): 0%; Substanz + Dime-thoat (Drosophila melanogaster; amine 0,001 % + Dimethoat 0,005 %, Dimethoat : Amin 1 : 0,2): 30,4%; Faktor der Wirkungs-steigerung (Drosophila melanogaster; amine 0,001 %, Dimethoat : Amin 1 : 0,2): 3,53; Substanz + Dime-thoat (Drosophila melanogaster; [12]): 32,9%; Faktor der Wirkungs-steigerung (Drosophila melanogaster; [13]): 3,83
C=CC(C)(CCC=C(C)C)N1CCOCC1 (stereo not drawn) [N-1-Linalyl-morpholin] | 20,0% | 30,8% | 2,22 | 2,92 | 3,42 | 92,0% | 33,2% | – | – | Wirksamkeit in % Substanz allein (Drosophila melanogaster; [4]): 11,7%; Faktor der Wirkungssteigerung bei Dimi-tilan (Drosophila melanogaster; [15]): 3,32; Wirksamkeit in % Substanz allein [1, 8]: 0%
Cc1cc(OC(=O)N(C)C)nn1C(=O)N(C)C [Dimetilan, reference compound] | – | – | – | – | – | – | – | – | – | mortality at 0.0001 % (Drosophila melanogaster; Drosophila melanogaster, read-out: Wirksamkeit von Dimetilan): 2.5%
CCCCCCCCCN1CCCCC1CC (stereo not drawn) [1-n-Nonyl-2-ethyl-piperidin] | 7,9% | 24,6% | 2,19 | – | – | – | – | – | 5.8 | –
CCCCOC(CN1CCOCC1)OCCCC [2-N-Morpholino-ethyl-di-butyl-acetal] | – | – | – | – | – | – | – | – | – | Wirksamkeit in % Substanz +Dimethoat (Drosophila melanogaster; [17]): 17,9%; Wirksamkeit in % Substanz +Dimeti-lan (Drosophila melanogaster; [17]): 3,3%; Wirksamkeit in % Substanz allein (Drosophila melanogaster; [17]): 0,4%; Faktor der Wirkungssteigerung bei Dime-methoat (Drosophila melanogaster; in vivo): 2,03; Faktor der Wirkungssteigerung bei Dimi-tilan (Drosophila melanogaster; in vivo): 1,16; Synergistischer Faktor bei Ripcord ([1]; in vivo): 3,17; Synergistischer Faktor bei Talcord ([1]; in vivo): 10,31; Wirksamkeit in % Substanz +Ripcord [1, 18]: 100%; Wirksamkeit in % Substanz +Talcord [1, 18]: 100%; Wirksamkeit in % Substanz allein [1, 18]: 0%
CCCCOCCOCCOCCN1CCCC1 [N-(a-Butyl-triethylen-tri-ether-(w))-pyrrolidin] | 1,7% | 23,3% | 2,97 | 3,05 | 1,24 | 96,0% | 13,2% | – | – | Wirksamkeit in % Substanz allein (Drosophila melanogaster; [4]): 0%; Wirksamkeit in % Substanz allein [1, 8]: 0%
CCCCCCCCCCN1CCCCC1CC (stereo not drawn) [N-1-Decyl-2-ethyl-piperidin] | 56,3% | 55,8% | 2,42 | – | – | – | – | – | 35 | Faktor der Wirkungssteigerung bei Dimi-tilan (Drosophila melanogaster; [15]): 8,52
c1cc2c(cc1CN1CCCCC1)OCO2 [N-Piperonyl-piperidin] | 52,1% | 65,0% | 1,55 | – | – | 90,8% | 64,0% | 0 | 51.7 | mortality at 0.05 % (Drosophila melanogaster; [19]): 28.8%; mortality at 0.005 % (Drosophila melanogaster; [11]): 0%; Substanz + Dime-thoat (Drosophila melanogaster; [20]): 60,0%; Faktor der Wirkungs-steigerung (Drosophila melanogaster; [21]): 3,63; Substanz + Dime-thoat (Drosophila melanogaster; [12]): 26,3%; Faktor der Wirkungs-steigerung (Drosophila melanogaster; [13]): 3,06; % Wirkung Substanz +Ripcord [1, 22]: 84,0%; % Wirkung Substanz +Talcord [1, 22]: 54,8%; % Wirkung Substanz +Ripcord [1, 23]: 74,8%; % Wirkung Substanz +Talcord [1, 23]: 24,0%; mortality at 100 µg/mL ([1]; Sitophilus granarius, 3 h, amine 0,1 mg/ml (as for Pyrethroid : Amin 1 : 10), read-out: % Wirkung Substanz allein): 0%; mortality at 50 µg/mL ([1]; Sitophilus granarius, 3 h, amine 0,05 mg/ml (as for Pyrethroid : Amin 1 : 5), read-out: % Wirkung Substanz allein): 0%
CCCCCCCCCCN1CCCCC1C (stereo not drawn) [N-Decyl-2-methyl-piperidin] | 77,9% | 66,7% | – | – | – | – | – | – | 61.3 | Faktor der Wirkungssteigerung bei Dimi-tilan (Drosophila melanogaster; [15]): 2,87
CCCCOCCOCCN1CCOCC1 [N-(2'-Butoxi-diethylether-(2))-morpholin] | – | – | – | – | – | – | – | – | – | Wirksamkeit in % Substanz +Dimethoat (Drosophila melanogaster; [17]): 12,9%; Wirksamkeit in % Substanz +Dimeti-lan (Drosophila melanogaster; [17]): 3,5%; Wirksamkeit in % Substanz allein (Drosophila melanogaster; [17]): 1,7%; Faktor der Wirkungssteigerung bei Dime-methoat (Drosophila melanogaster; in vivo): 1,30; Synergistischer Faktor bei Ripcord ([1]; in vivo): 2,96; Synergistischer Faktor bei Talcord ([1]; in vivo): 8,12; Wirksamkeit in % Substanz +Ripcord [1, 18]: 93,2%; Wirksamkeit in % Substanz +Talcord [1, 18]: 78,8%; Wirksamkeit in % Substanz allein [1, 18]: 0%
CCCCCCCCCCCCCCN1CCOCC1 [N-1-Tetradecyl-morpholin] | 2,5% | 57,1% | 6,64 | 2,03 | – | 64,0% | 5,2% | 0 | 0 | –
CCCCCCCCCCCCCN1CCCCC1 [N-1-Tridecyl-piperidin] | 2,3% | 54,6% | 6,35 | 3,05 | 1,77 | 96,0% | 17,2% | 0 | 0 | mortality at 0.01 % (Drosophila melanogaster; Drosophila melanogaster, amine 0,01 %, read-out: Sub-stanz allein): 0%; mortality at 0.05 % (Drosophila melanogaster; [19]): 0%; Substanz + Dime-thoat (Drosophila melanogaster; amine 0,01 % + Dimethoat 0,005 %, Dimethoat : Amin 1 : 2): 42,9%; Faktor der Wirkungs-steigerung (Drosophila melanogaster; amine 0,01 %, Dimethoat : Amin 1 : 2): 4,99; Substanz + Dime-thoat (Drosophila melanogaster; [20]): 54,6%; Faktor der Wirkungs-steigerung (Drosophila melanogaster; [21]): 6,35
c1cc2c(cc1CN1CCCC1)OCO2 [N-Piperonyl-pyrrolidin] | 58,3% | 60,0% | 3,63 | 1,87 | 4,29 | 100,0% | 82,8% | 41.2 | 28.8 | Faktor der Wirkungssteigerung bei Dimi-tilan (Drosophila melanogaster; [15]): 11,80
C(=CC1CCCCC1)CN1CCCC1 [N-(3-Cyclohexyl-propen-(2))-pyrrolidin] | 0% | 22,5% | 2,86 | – | – | – | – | – | – | Wirksamkeit in % Substanz allein (Drosophila melanogaster; [4]): 0%
COc1cc(C=O)cc(CN2CCCCC2)c1O [3-N-(Piperidino-methyl)-4-hydroxid-5-methoxi-benz-aldehyd] | – | – | – | 2,79 | 4,12 | 88,0% | 40,0% | – | – | Wirksamkeit in % Substanz allein [1, 8]: 0%
CCCCCCCCCN1CCCCCC1 [N-1-Nonyl-hexamethylenimin] | – | – | – | 1,82 | 4,54 | 97,2% | 84,0% | 40 | – | –
